Each structure is given as a SMILES string. pIC50: −log10 of the molar value.

The results in this text go back to patent US9493486B2, “Diazaspirocycloalkane and azaspirocycloalkane” (Hoffmann-La Roche Inc., priority 2012, dated 2016).

The test deals with ATX (human His-tagged) (Homo sapiens (Human), UniProt Q13822). The test can be described thus: Human ATX enzyme inhibition assay (fluorescence quenching, MR121 substrate). The settings on record: 30 nM ATX, 1 μM MR121 substrate, 30° C. The test is classed as biochemical. An excerpt: Human ATX Enzyme Inhibition Assay
Assay working solutions were made as follows:
For `N#Cc1cc(Cl)cc(COC(=O)N2CC3(CC(NC(=O)c4ccc5[nH]nnc5c4)C3)C2)c1` [Example 12.20, 6-[(1H-benzotriazole-5-carbonyl)-amino]-2-aza-spiro[3.3]heptane-2-carboxylic acid 3-chloro-5-cyano-benzyl ester], the pIC50 was 5.25.

`O=C(OCc1cc(Cl)cc(Cl)c1)N1CC2(CCN(C(=O)c3ccc4[nH]nnc4c3)CC2)C1` [Example 1.15, 3,5-dichlorobenzyl 7-(1H-benzo[d][1,2,3]triazole-5-carbonyl)-2,7-diazaspiro[3.5]nonane-2-carboxylate] gave a pIC50 of 7.19.

On to `O=C(OCc1ccc(Cl)c(Cl)c1)N1CCC2(CC1)CN(C(=O)c1ccc3[nH]nnc3c1)C2` [Example 12.02, 3,4-dichlorobenzyl 2-(1H-benzo[d][1,2,3]triazole-5-carbonyl)-2,7-diazaspiro[3.5]nonane-7-carboxylate], for which the pIC50 is 7.36.

In turn, `O=C(OCc1cc(Cl)cc(Cl)n1)N1CCC2(CC1)CN(C(=O)c1ccc3[nH]nnc3c1)C2` [Example 12.10, (4,6-dichloropyridin-2-yl)methyl 2-(1H-benzo[d][1,2,3]triazole-5-carbonyl)-2,7-diazaspiro[3.5]nonane-7-carboxylate] showed a pIC50 of 6.54.

In the case of `O=C(OCc1ccc(OCC(F)(F)F)cc1)N1CCC2(CC1)CN(C(=O)C1CCc3nn[nH]c3C1)C2` (stereo not shown) [Example 12.39, 4-(2,2,2-trifluoroethoxy)benzyl 2-(4,5,6,7-tetrahydro-1H-benzo[d][1,2,3]triazole-6-carbonyl)-2,7-diazaspiro[3.5]nonane-7-carboxylate], the pIC50 was 8.30.

For `O=C(OCc1cc(F)cc(OC(F)(F)F)c1)N1CCC2(CCCN(C(=O)c3ccc4[nH]nnc4c3)C2)C1` (stereo not shown) [Example 1.20, 3-fluoro-5-(trifluoromethoxy)benzyl 7-(1H-benzo[d][1,2,3]triazole-5-carbonyl)-2,7-diazaspiro[4.5]decane-2-carboxylate], the pIC50 was 6.92.

For the compound `O=C(OCc1ccc(OC(F)(F)F)cc1)N1CC2(CCN(C(=O)C3CCc4[nH]nnc4C3)CC2)C1` (stereo not shown) [Example 12.34, 4-(trifluoromethoxy)benzyl 7-(4,5,6,7-tetrahydro-1H-benzo[d][1,2,3]triazole-5-carbonyl)-2,7-diazaspiro[3.5]nonane-2-carboxylate], the negative logarithm of the IC50 (pIC50) is 8.00.

In the case of `O=C(CCc1cc(Cl)cc(Cl)c1)N1CCC2(CC1)CC(Nc1ccc3[nH]c(=O)oc3c1)C2` [Example 6.1, 6-(7-(3-(3,5-dichlorophenyl)propanoyl)-7-azaspiro[3.5]nonan-2-ylamino)benzo[d]oxazol-2(3H)-one], the pIC50 was 6.44.

Consider `CC(C)c1cc(C#N)ccc1OCC(=O)N1CCC2(CC1)CN(C(=O)C1CCc3[nH]nnc3C1)C2` (stereo not shown) [Example 1.25, 3-isopropyl-4-(2-oxo-2-(2-(4,5,6,7-tetrahydro-1H-benzo[d][1,2,3]triazole-5-carbonyl)-2,7-diazaspiro[3.5]nonan-7-yl)ethoxy)benzonitrile], for which the negative-log IC50 (pIC50) is 7.13.

`O=C(OCc1ccc(C(F)(F)F)cc1F)N1CCC2(CC1)CN(C(=O)[C@H]1CCc3[nH]nnc3C1)C2` [Example 16A, (S)-[2-Fluoro-4-(trifluoromethyl)phenyl]methyl 2-[4,5,6,7-tetrahydro-1H-benzotriazole-5-carbonyl]-2,7-diazaspiro[3.5]nonane-7-carboxylate]: the pIC50 was 7.00.

Compound `O=C(NC1CC2(C1)CN(C(=O)OCc1cc(Cl)cc(Cl)c1)C2)c1ccc2[nH]c(=O)oc2c1` [Example 5.2, 6-[(2-oxo-2,3-dihydro-benzooxazole-6-carbonyl)-amino]-2-aza-spiro[3.3]heptane-2-carboxylic acid 3,5-dichloro-benzyl ester] gave a pIC50 of 7.58.

`O=C(OCc1ccc(OC(F)(F)F)c(F)c1)N1CC2(CCN(C(=O)C3CCc4[nH]nnc4C3)CC2)C1` (stereo not shown) [Example 12.33, 3-fluoro-4-(trifluoromethoxy)benzyl 7-(4,5,6,7-tetrahydro-1H-benzo[d][1,2,3]triazole-5-carbonyl)-2,7-diazaspiro[3.5]nonane-2-carboxylate] showed a pIC50 of 7.89.

Take `O=C(CCc1cc(Cl)cc(Cl)c1)N1CCC2(CC1)CN(C(=O)c1ccc3[nH]c(=O)oc3c1)C2` [Example 5.1, 6-(7-(3-(3,5-dichlorophenyl)propanoyl)-2,7-diazaspiro[3.5]nonane-2-carbonyl)benzo[d]oxazol-2(3H)-one]: the pIC50 is 7.21.

Consider `O=C(CCc1ccc(OC(F)(F)F)cc1)N1CCC2(CC1)CN(C(=O)c1ccc3[nH]nnc3c1)C2` [Example 1.24, 1-(2-(1H-benzo[d][1,2,3]triazole-5-carbonyl)-2,7-diazaspiro[3.5]nonan-7-yl)-3-(4-(trifluoromethoxy)phenyl)propan-1-one], for which the pIC50 was 7.92.

In turn, `O=C(NCc1cnn[nH]1)C1CC2(CCN(C(=O)OCc3cc(Cl)cc(Cl)c3)CC2)C1` [Example 12.32, 2-[(3H-[1,2,3]triazol-4-ylmethyl)-carbamoyl]-7-aza-spiro[3.5]nonane-7-carboxylic acid 3,5-dichloro-benzyl ester] showed a negative-log IC50 (pIC50) of 7.36.

`O=C(OCc1ccc(C(F)(F)F)cc1F)N1CCC2(CC1)CN(C(=O)C1CCc3[nH]nnc3C1)C2` (stereo not shown) [Example 12.36, [2-fluoro-4-(trifluoromethyl)phenyl]methyl 2-(4,5,6,7-tetrahydro-1H-benzotriazole-5-carbonyl)-2,7-diazaspiro[3.5]nonane-7-carboxylate] had a pIC50 of 9.00.

The compound `O=C(NC1CC2(C1)CN(S(=O)(=O)c1ccc3[nH]c(=O)oc3c1)C2)OCc1cc(Cl)cc(Cl)c1` [Example 3.5, [2-(2-oxo-2,3-dihydro-benzooxazole-6-sulfonyl)-2-aza-spiro[3.3]hept-6-yl]-carbamic acid 3,5-dichloro-benzyl ester] showed a pIC50 of 7.70.

`O=C(OCc1cc(Cl)cc(Cl)c1)N1CC2(CC(NS(=O)(=O)c3ccc4[nH]c(=O)oc4c3)C2)C1` [Example 3.4, 3,5-dichlorobenzyl 6-(2-oxo-2,3-dihydrobenzo[d]oxazole-6-sulfonamido)-2-azaspiro[3.3]heptane-2-carboxylate]: the pIC50 is 7.71.

On to `O=C(CCc1cc(Cl)cc(Cl)c1)N1CC2(CC(NS(=O)(=O)c3ccc4[nH]c(=O)oc4c3)C2)C1` [Example 3.3, 2-oxo-2,3-dihydro-benzooxazole-6-sulfonic acid {2-[3-(3,5-dichloro-phenyl)-propionyl]-2-aza-spiro[3.3]hept-6-yl}-amide], for which the negative-log IC50 (pIC50) was 7.23.

`O=C(NC1CC2(C1)CN(C(=O)OCc1cccc(C(F)(F)F)c1)C2)c1ccc2[nH]nnc2c1` [Example 12.19, 6-[(1H-benzotriazole-5-carbonyl)-amino]-2-aza-spiro[3.3]heptane-2-carboxylic acid 3-trifluoromethyl-benzyl ester] showed a pIC50 of 5.67.

As to `O=C(CCCc1ccccc1)N1CC2(CC(NS(=O)(=O)c3ccc4[nH]c(=O)oc4c3)C2)C1` [Example 3.1, 2-oxo-2,3-dihydro-benzooxazole-6-sulfonic acid [2-(4-phenyl-butyryl)-2-aza-spiro[3.3]hept-6-yl]-amide], the pIC50 was 5.45.

For `O=C(OCc1cc(F)cc(OC(F)(F)F)c1)N1CCCC2(CCN(C(=O)c3ccc4[nH]nnc4c3)C2)C1` (stereo not shown) [Example 12.30, 3-fluoro-5-(trifluoromethoxy)benzyl 2-(1H-benzo[d][1,2,3]triazole-5-carbonyl)-2,7-diazaspiro[4.5]decane-7-carboxylate], the pIC50 is 5.79.

A word on the pIC50: it is the negative decadic logarithm of the IC50, by convention in mol/L. Read a low pIC50 as a large IC50.
